Test results: paper PMC10487456, “Canagliflozin Inhibited the Activity of Hemolysin and Reduced the Inflammatory Response Caused by Streptococcus suis” (International Journal of Molecular Sciences, 2023)
pKd: −log10 of the molar value.

Key:
SLY (hemolysin) [1] = target: T1, SLY (hemolysin) (Streptococcus suis, UniProt Q55996); assay: biochemical
SLY (hemolysin) [2] = target: T1, SLY (hemolysin); assay: biochemical; settings: read-out: % inhibition at 16 μg/mL

T1 sequence (Q55996 28-497 limits assumed): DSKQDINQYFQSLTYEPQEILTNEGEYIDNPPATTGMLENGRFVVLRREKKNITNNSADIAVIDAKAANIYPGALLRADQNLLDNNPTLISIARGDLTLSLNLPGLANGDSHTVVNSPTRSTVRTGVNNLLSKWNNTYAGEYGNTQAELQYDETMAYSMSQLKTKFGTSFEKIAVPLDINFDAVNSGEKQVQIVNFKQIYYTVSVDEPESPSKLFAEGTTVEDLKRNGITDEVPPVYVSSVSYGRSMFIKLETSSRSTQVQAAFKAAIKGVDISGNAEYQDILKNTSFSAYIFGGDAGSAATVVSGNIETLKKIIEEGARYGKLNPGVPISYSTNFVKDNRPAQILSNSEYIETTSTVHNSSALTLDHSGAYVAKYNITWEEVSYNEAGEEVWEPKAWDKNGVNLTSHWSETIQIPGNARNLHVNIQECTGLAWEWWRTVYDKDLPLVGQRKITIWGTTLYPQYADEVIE

Cc1ccc([C@@H]2O[C@H](CO)[C@@H](O)[C@H](O)[C@H]2O)cc1Cc1ccc(-c2ccc(F)cc2)s1 [canagliflozin]
pKd (SLY (hemolysin) [1]): 6.05 | inhibition at 16 µg/mL (SLY (hemolysin) [2]): 76%
